# In US20190240344A1, “FUNCTIONAL RNA AND SMALL-MOLECULE DRUG THERAPEUTIC COMPLEXES AND NANOPARTICLE DELIVERY VEHICLES” (EOS BIOSCIENCES, INC., priority 2016, published 2019):
# What was measured:
# [1] = tested on: JIMT1 cells (trastuzumb-resistant human breast cancer); test: Cell viability of JIMT1 cells after transfection (Celltiter Glo, ATP); type: cell-based; details: three doses, 24, 48, 72 hours, RNAiMax lipofectamine carrier (doxorubicin alone without lipofectamine)
# Experimental: (§1) To measure the effect of the complexes on cell viability, the formed complexes were transfected into JIMT1 cells (trastuzumb-resistant human breast cancer). Approximately 10,000 cells per well were plated in 96-well plates, maintained in RPMI 1640 medium with 100% fetal bovine serum, 100 U/mL penicillin, 100 μg/mL streptomycin at 37° C. under 5% CO2. After 24 hours, the culture media was replaced with Opti-MEM I reduced serum medium (Invitrogen Life Technologies). RNAiMax lipofectamine (Invitrogen Life Technologies) was used as a carrier for siRNA, Dox:siRNA complexes, and the Dox:DNA oligo complex delivery. Doxorubicin was administered to the control sample without the lipofectamine. Three hours following transfection, the medium in each sample was replaced with complete culture media. After 24, 48, or 72 hours, relative cell viability was determined by quantifying ATP using Celltiter Glo Luminescent Cell Viability Kit (Promega), according to the manufacturer's instructions. Experiments were conducted in triplicate. Results are shown in FIG. 5A (24 hours), 5B (48 hours), and SC (72 hours).
# [2] = tested on: 4T1-Fluc-Neo/eGFP-Puro cells (mouse mammary carcinoma cells); test: Cell viability of 4T1-Fluc-Neo/eGFP-Puro cells after transfection (Celltiter Glo, ATP); type: cell-based; details: three doses, 24 hours, RNAiMax lipofectamine carrier (doxorubicin alone without lipofectamine)
# Experimental: as §1, with “4T1-Fluc-Neo/eGFP-Puro” for “JIMT1”, “(mouse mammary carcinoma cells stably expressing FLuc and eGFP).” for “(trastuzumb-resistant human breast cancer).”, “[…],” for “100%”, “siScrm2, dox:siScrm2, siRNA3, or dox:siRNA3” for “siRNA, Dox:siRNA complexes, and the Dox:DNA oligo complex”, “24” for “24, 48, or 72”, “triplicate.” for “triplicate. Results are shown in FIG. 5A (24 hours), 5B (48 hours), and SC (72 hours).”
smiles,measurement,setting,value
COc1cccc2c1C(=O)c1c(O)c3c(c(O)c1C2=O)C[C@@](O)(C(=O)CO)C[C@@H]3O[C@H]1C[C@H](N)[C@H](O)[C@H](C)O1 [doxorubicin],relative cell viability,[1],dose-dependent decrease in cell viability
same,relative cell viability,[2],dose-dependent decrease in cell viability
